Key:
Format in all cases: cell-based
Phospho-KIT (Tyr719) [1] = assay: GIST430 KIT Western Blot; details: GIST430 cells, 4 hours, serum-free medium; read-out: pKIT suppression by western blot analysi GIST430
In short: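 GIST430 cells were compound-treated in serum-free Ham's F10, then lysed. Phospho-KIT (Tyr719) was measured by western blot with fluorescence-mode ECL, and blots were reprobed for total KIT; IC50 derived from concentration response.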

Phospho-KIT (Tyr719) [2] = target: T1, Phospho-KIT (Tyr719) (Homo sapiens, UniProt P10721, K642E); assay: GIST882 KIT Western Blot; details: GIST882 cells, 4 hours, serum-free medium; read-out: pKIT suppression by western blot analysi GIST 882
T1 construct: endogenous in cells; host or cells: GIST882
T1 sequence (P10721 26-976 K642E): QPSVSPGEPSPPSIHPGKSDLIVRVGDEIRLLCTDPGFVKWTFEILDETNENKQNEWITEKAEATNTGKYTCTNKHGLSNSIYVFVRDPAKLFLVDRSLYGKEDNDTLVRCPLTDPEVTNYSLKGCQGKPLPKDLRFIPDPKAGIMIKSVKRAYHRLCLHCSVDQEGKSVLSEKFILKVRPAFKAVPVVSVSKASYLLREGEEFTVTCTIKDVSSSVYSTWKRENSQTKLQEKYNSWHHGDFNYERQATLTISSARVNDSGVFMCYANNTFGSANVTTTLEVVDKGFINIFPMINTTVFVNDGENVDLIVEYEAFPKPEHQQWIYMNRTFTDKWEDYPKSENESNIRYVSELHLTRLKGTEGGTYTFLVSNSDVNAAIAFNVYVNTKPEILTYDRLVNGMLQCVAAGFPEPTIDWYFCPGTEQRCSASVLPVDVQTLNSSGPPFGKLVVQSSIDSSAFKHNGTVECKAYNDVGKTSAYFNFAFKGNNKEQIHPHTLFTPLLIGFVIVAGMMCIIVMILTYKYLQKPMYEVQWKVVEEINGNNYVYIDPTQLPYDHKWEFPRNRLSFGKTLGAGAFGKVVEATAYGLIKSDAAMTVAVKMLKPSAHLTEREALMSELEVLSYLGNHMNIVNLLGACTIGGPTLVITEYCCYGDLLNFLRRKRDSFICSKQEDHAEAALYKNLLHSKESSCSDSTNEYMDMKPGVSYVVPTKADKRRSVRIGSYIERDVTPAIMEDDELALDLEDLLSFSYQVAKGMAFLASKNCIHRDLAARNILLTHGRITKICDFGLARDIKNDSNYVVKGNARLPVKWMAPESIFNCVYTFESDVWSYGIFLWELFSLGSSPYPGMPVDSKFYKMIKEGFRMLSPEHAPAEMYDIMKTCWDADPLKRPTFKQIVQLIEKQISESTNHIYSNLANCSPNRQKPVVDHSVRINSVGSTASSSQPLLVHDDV
Protocol: GIST48, GIST430, and GIST882 cells were obtained from J. Fletcher (Brigham and Women's Hospital, Boston, MA). GIST T1 cells were obtained from B. Rubin (Cleveland Clinic, Cleveland, OH) and Professor Takahiro Taguchi (Kochi Medical School, Nankoku, Kochi, Japan). […] GIST430 cells were grown in Ham's F10 medium supplemented with 15% characterized fetal bovine serum (Invitrogen, Carlsbad, CA), 30 mg/L bovine pituitary extract (BD Biosciences, San Jose, CA), 0.5% Mito+ serum extender (BD Biosciences, San Jose, CA), 1 unit/mL penicillin G, 1 µg/ml streptomycin, and 0.29 mg/mL L-glutamine at 37 °C, 5%CO2, 95% humidity. GIST T1 cells were grown in DMEM medium supplemented with 10% characterized fetal bovine serum (Invitrogen, Carlsbad, CA), 1 unit/mL penicillin G, 1 µg/ml streptomycin, and 0.29 mg/mL L-glutamine at 37 °C, 5% CO2, and 95% humidity.
Two hundred fifty thousand cells were added per well in a 24-well tissue-culture treated plate. […] Medium was aspirated, cells were washed with PBS, and serum-free RPMI1640 medium was added. […] Cells were washed with PBS, then lysed. Cell lysates were separated by SDS-PAGE and transferred to PVDF. Phospho-KIT (Tyr719) was detected using an antibody from Cell Signaling Technology (Beverly, MA), ECL Plus detection reagent (GE Healthcare, Piscataway, NJ) and a Molecular Devices Storm 840 phosphorimager in fluorescence mode. Blots were stripped and probed for total KIT using an antibody from Santa Cruz Biotech (Santa Cruz, CA). IC50 values were calculated using Prism software (Graphpad, San Diego, CA).

GIST T1 cells = assay: GIST T1 Cell Proliferation Assay; details: Homo sapiens, GISTT1, 72 h, 68 hours + 4 hours resazurin
Phospho-KIT (Tyr719) [3] = target: T2, Phospho-KIT (Tyr719) (Homo sapiens, UniProt P10721, DEL560-578); assay: GIST T1 KIT Western Blot; details: GIST T1 cells, 4 hours, serum-free medium; read-out: pKIT suppression by western blot analysi GIST T1
T2 construct: endogenous in cells; host or cells: GIST T1
T2 sequence (P10721 with tags, fused parts or gaps DEL560-578): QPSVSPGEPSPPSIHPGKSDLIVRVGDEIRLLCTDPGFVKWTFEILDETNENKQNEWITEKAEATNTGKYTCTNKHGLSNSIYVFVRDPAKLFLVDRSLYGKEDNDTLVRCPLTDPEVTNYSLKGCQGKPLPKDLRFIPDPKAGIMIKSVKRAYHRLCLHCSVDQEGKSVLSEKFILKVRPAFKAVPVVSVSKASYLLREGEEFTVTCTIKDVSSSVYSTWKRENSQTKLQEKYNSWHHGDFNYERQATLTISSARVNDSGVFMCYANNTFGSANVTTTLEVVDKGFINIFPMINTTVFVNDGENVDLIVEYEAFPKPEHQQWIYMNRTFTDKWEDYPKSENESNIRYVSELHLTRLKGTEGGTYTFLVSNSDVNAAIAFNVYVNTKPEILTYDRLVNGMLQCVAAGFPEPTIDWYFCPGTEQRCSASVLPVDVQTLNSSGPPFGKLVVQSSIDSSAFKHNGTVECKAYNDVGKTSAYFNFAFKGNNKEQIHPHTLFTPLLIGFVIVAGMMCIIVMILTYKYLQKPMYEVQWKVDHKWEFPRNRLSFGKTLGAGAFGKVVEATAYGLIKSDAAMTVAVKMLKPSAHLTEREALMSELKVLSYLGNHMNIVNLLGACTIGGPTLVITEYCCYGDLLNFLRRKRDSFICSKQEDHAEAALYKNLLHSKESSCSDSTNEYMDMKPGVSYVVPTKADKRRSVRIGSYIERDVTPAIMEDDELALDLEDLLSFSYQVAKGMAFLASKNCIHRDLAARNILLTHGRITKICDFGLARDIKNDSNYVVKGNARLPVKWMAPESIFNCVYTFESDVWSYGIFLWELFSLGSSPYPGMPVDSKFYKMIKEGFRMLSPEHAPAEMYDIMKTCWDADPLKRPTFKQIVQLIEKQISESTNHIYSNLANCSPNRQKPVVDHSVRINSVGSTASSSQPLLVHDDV
Protocol: GIST48, GIST430, and GIST882 cells were obtained from J. Fletcher (Brigham and Women's Hospital, Boston, MA). GIST T1 cells were obtained from B. Rubin (Cleveland Clinic, Cleveland, OH) and Professor Takahiro Taguchi (Kochi Medical School, Nankoku, Kochi, Japan). […] GIST430 cells were grown in Ham's F10 medium supplemented with 15% characterized fetal bovine serum (Invitrogen, Carlsbad, CA), 30 mg/L bovine pituitary extract (BD Biosciences, San Jose, CA), 0.5% Mito+ serum extender (BD Biosciences, San Jose, CA), 1 unit/mL penicillin G, 1 µg/ml streptomycin, and 0.29 mg/mL L-glutamine at 37 °C, 5%CO2, 95% humidity. GIST T1 cells were grown in DMEM medium supplemented with 10% characterized fetal bovine serum (Invitrogen, Carlsbad, CA), 1 unit/mL penicillin G, 1 µg/ml streptomycin, and 0.29 mg/mL L-glutamine at 37 °C, 5% CO2, and 95% humidity. Cells were allowed to expand until reaching 70-95% confluence at which point they were subcultured or harvested for assay use.
One hundred twenty-five thousand cells were added per well in a 24-well tissue-culture treated plate. Cells were then incubated overnight at 37°C, 5% CO2, 95% humidity. Medium was aspirated, cells were washed with PBS, and serum-free DMEM medium was added. A serial dilution of test compound was added to plates containing cells and plates were incubated for 4 hours at 37°C, 5% CO2, 95% humidity. Cells were washed with PBS, then lysed. Cell lysates were separated by SDS-PAGE and transferred to PVDF. Phospho-KIT (Tyr719) was detected using an antibody from Cell Signaling Technology (Beverly, MA), ECL Plus detection reagent (GE Healthcare, Piscataway, NJ) and a Molecular Devices Storm 840 phosphorimager in fluorescence mode. Blots were stripped and probed for total KIT using an antibody from Santa Cruz Biotech (Santa Cruz, CA). IC50 values were calculated using Prism software (Graphpad, San Diego, CA).

CCn1c(=O)c(-c2cc(NC(=O)Nc3cccc(F)c3F)c(F)cc2Cl)cc2cnc(NC)cc21 [Example 4, 1-(4-chloro-5-(1-ethyl-7-(methylamino)-2-oxo-1,2-dihydro-1,6-naphthyridin-3-yl)-2-fluorophenyl)-3-(2,3-difluorophenyl)urea]
IC50 (Phospho-KIT (Tyr719) [1]): 10 to 100 nM | IC50 (Phospho-KIT (Tyr719) [2]): < 10 nM | IC50 (GIST T1 cells): < 10 nM

CCn1c(=O)c(-c2cc(NC(=O)Nc3cc(F)cc(F)c3)c(F)cc2Cl)cc2cnc(NC(C)=O)cc21 [Example 67, N-(3-(2-chloro-5-(3-(3,5-difluorophenyl)ureido)-4-fluorophenyl)-1-ethyl-2-oxo-1,2-dihydro-1,6-naphthyridin-7-yl)acetamide]
IC50 (Phospho-KIT (Tyr719) [1]): < 10 nM | IC50 (Phospho-KIT (Tyr719) [2]): 10 to 100 nM | IC50 (GIST T1 cells): < 10 nM

CCn1c(=O)c(-c2cc(NC(=O)Nc3ccccc3)c(F)cc2Br)cc2cnc(N)cc21 [Example 57, 1-(5-(7-amino-1-ethyl-2-oxo-1,2-dihydro-1,6-naphthyridin-3-yl)-4-bromo-2-fluorophenyl)-3-phenylurea]
IC50 (Phospho-KIT (Tyr719) [1]): 10 to 100 nM | IC50 (Phospho-KIT (Tyr719) [3]): < 10 nM | IC50 (Phospho-KIT (Tyr719) [2]): 100 to 1000 nM | IC50 (GIST T1 cells): < 10 nM

CCn1c(=O)c(-c2cc(NC(=O)Nc3ccccc3)c(F)cc2Cl)cc2cnc(NC(=O)OC)cc21 [Example 73, methyl (3-(2-chloro-4-fluoro-5-(3-phenylureido)phenyl)-1-ethyl-2-oxo-1,2-dihydro-1,6-naphthyridin-7-yl)carbamate]
IC50 (Phospho-KIT (Tyr719) [1]): 10 to 100 nM | IC50 (Phospho-KIT (Tyr719) [2]): 10 to 100 nM | IC50 (GIST T1 cells): 10 to 100 nM

CCn1c(=O)c(-c2cc(NC(=O)Nc3ccccc3F)c(F)cc2Cl)cc2cnc(NC)cc21 [Example 25, 1-[4-chloro-5-(1-ethyl-7-methylamino-2-oxo-1,2-dihydro-[1,6]naphthyridin-3-yl)-2-fluoro-phenyl]-3-(2-fluoro-phenyl)-urea]
IC50 (Phospho-KIT (Tyr719) [1]): 10 to 100 nM | IC50 (Phospho-KIT (Tyr719) [2]): 10 to 100 nM | IC50 (GIST T1 cells): < 10 nM

CCn1c(=O)c(-c2cc(NC(=O)Nc3ccc(F)c(CN4CCN(C)CC4)c3)c(F)cc2Cl)cc2cnc(NC)cc21 [Example 87, 1-(4-chloro-5-(1-ethyl-7-(methylamino)-2-oxo-1,2-dihydro-1,6-naphthyridin-3-yl)-2-fluorophenyl)-3-(4-fluoro-3-((4-methylpiperazin-1-yl)methyl)phenyl)urea]
IC50 (Phospho-KIT (Tyr719) [1]): 100 to 1000 nM | IC50 (Phospho-KIT (Tyr719) [2]): 100 to 1000 nM | IC50 (GIST T1 cells): 10 to 100 nM

CCn1c(=O)c(-c2cc(NC(=O)Nc3cc(F)cc(F)c3)c(F)cc2C)cc2cnc(NC)cc21 [Example 60, 1-(3,5-difluorophenyl)-3-(5-(1-ethyl-7-(methylamino)-2-oxo-1,2-dihydro-1,6-naphthyridin-3-yl)-2-fluoro-4-methylphenyl)urea]
IC50 (Phospho-KIT (Tyr719) [1]): 10 to 100 nM | IC50 (GIST T1 cells): 10 to 100 nM

CCn1c(=O)c(-c2cc(NC(=O)Nc3cc(F)cc(F)c3)c(F)cc2Cl)cc2cnc(NC)cc21 [Example 55, 1-(4-chloro-5-(1-ethyl-7-(methylamino)-2-oxo-1,2-dihydro-1,6-naphthyridin-3-yl)-2-fluorophenyl)-3-(3,5-difluorophenyl)urea]
IC50 (Phospho-KIT (Tyr719) [1]): 10 to 100 nM | IC50 (Phospho-KIT (Tyr719) [2]): 10 to 100 nM | IC50 (GIST T1 cells): < 10 nM

CCn1c(=O)c(-c2cc(NC(=O)Nc3ccccc3)c(F)cc2Cl)cc2cnc(NC(=O)N3CC(N(C)C)C3)cc21 [Example 102, N-(3-(2-chloro-4-fluoro-5-(3-phenylureido)phenyl)-1-ethyl-2-oxo-1,2-dihydro-1,6-naphthyridin-7-yl)-3-(dimethylamino)azetidine-1-carboxamide]
IC50 (Phospho-KIT (Tyr719) [1]): 10 to 100 nM | IC50 (GIST T1 cells): < 10 nM

CCn1c(=O)c(-c2cc(NC(=O)Nc3ccccc3)c(F)cc2Cl)cc2cnc(NCCOC)cc21 [Example 27, 1-(4-chloro-5-(1-ethyl-7-(2-methoxyethylamino)-2-oxo-1,2-dihydro-1,6-naphthyridin-3-yl)-2-fluorophenyl)-3-phenylurea]
IC50 (Phospho-KIT (Tyr719) [1]): 10 to 100 nM | IC50 (Phospho-KIT (Tyr719) [2]): 100 to 1000 nM

CCn1c(=O)c(-c2cc(NC(=O)Nc3ccccc3)c(F)cc2C)cc2cnc(NC)cc21 [Example 23, 1-(5-(1-ethyl-7-(methylamino)-2-oxo-1,2-dihydro-1,6-naphthyridin-3-yl)-2-fluoro-4-methylphenyl)-3-phenylurea]
IC50 (Phospho-KIT (Tyr719) [3]): < 10 nM | IC50 (Phospho-KIT (Tyr719) [2]): 10 to 100 nM | IC50 (GIST T1 cells): < 10 nM

CCn1c(=O)c(-c2cc(NC(=O)Nc3ccccc3)c(F)cc2Cl)cc2cnc(NC(=O)N3CC(O)C3)cc21 [Example 81, N-(3-(2-chloro-4-fluoro-5-(3-phenylureido)phenyl)-1-ethyl-2-oxo-1,2-dihydro-1,6-naphthyridin-7-yl)-3-hydroxyazetidine-1-carboxamide]
IC50 (Phospho-KIT (Tyr719) [1]): 10 to 100 nM | IC50 (Phospho-KIT (Tyr719) [2]): 10 to 100 nM | IC50 (GIST T1 cells): < 10 nM

CCn1c(=O)c(-c2cc(NC(=O)Nc3ccccc3)c(F)cc2Cl)cc2cnc(NC)cc21 [Example 3, 1-(4-chloro-5-(1-ethyl-7-(methylamino)-2-oxo-1,2-dihydro-1,6-naphthyridin-3-yl)-2-fluorophenyl)-3-phenylurea]
IC50 (Phospho-KIT (Tyr719) [3]): < 10 nM | IC50 (Phospho-KIT (Tyr719) [2]): 10 to 100 nM | IC50 (GIST T1 cells): < 10 nM

CCn1c(=O)c(-c2cc(NC(=O)Nc3cccc(F)c3)c(F)cc2Cl)cc2cnc(N)cc21 [Example 20, 1-(5-(7-amino-1-ethyl-2-oxo-1,2-dihydro-1,6-naphthyridin-3-yl)-4-chloro-2-fluorophenyl)-3-(3-fluorophenyl)urea]
IC50 (Phospho-KIT (Tyr719) [1]): 10 to 100 nM | IC50 (Phospho-KIT (Tyr719) [3]): < 10 nM | IC50 (Phospho-KIT (Tyr719) [2]): 10 to 100 nM

CNc1cc2c(cn1)cc(-c1cc(NC(=O)Nc3cccc(F)c3)c(F)cc1Cl)c(=O)n2C(C)C [Example 77, 1-(4-chloro-2-fluoro-5-(1-isopropyl-7-(methylamino)-2-oxo-1,2-dihydro-1,6-naphthyridin-3-yl)phenyl)-3-(3-fluorophenyl)urea]
IC50 (Phospho-KIT (Tyr719) [1]): 10 to 100 nM | IC50 (Phospho-KIT (Tyr719) [2]): 10 to 100 nM | IC50 (GIST T1 cells): < 10 nM

CCn1c(=O)c(-c2cc(NC(=O)Nc3cccc(F)c3)c(F)cc2C)cc2cnc(N)cc21 [Example 58, 1-(5-(7-amino-1-ethyl-2-oxo-1,2-dihydro-1,6-naphthyridin-3-yl)-2-fluoro-4-methylphenyl)-3-(3-fluorophenyl)urea]
IC50 (Phospho-KIT (Tyr719) [1]): 10 to 100 nM | IC50 (Phospho-KIT (Tyr719) [2]): 100 to 1000 nM | IC50 (GIST T1 cells): < 10 nM

CCn1c(=O)c(-c2cc(NC(=O)Nc3ccccc3)c(F)cc2C)cc2cnc(NC(=O)N(C)C)cc21 [Example 101, 3-(1-ethyl-3-(4-fluoro-2-methyl-5-(3-phenylureido)phenyl)-2-oxo-1,2-dihydro-1,6-naphthyridin-7-yl)-1,1-dimethylurea]
IC50 (Phospho-KIT (Tyr719) [1]): 10 to 100 nM | IC50 (Phospho-KIT (Tyr719) [2]): 100 to 1000 nM | IC50 (GIST T1 cells): < 10 nM

CCn1c(=O)c(-c2cc(NC(=O)Nc3ccccc3)c(F)cc2Br)cc2cnc(NCCOC)cc21 [Example 51, 1-(4-bromo-5-(1-ethyl-7-(2-methoxyethylamino)-2-oxo-1,2-dihydro-1,6-naphthyridin-3-yl)-2-fluorophenyl)-3-phenylurea]
IC50 (Phospho-KIT (Tyr719) [1]): 10 to 100 nM | IC50 (Phospho-KIT (Tyr719) [2]): 10 to 100 nM | IC50 (GIST T1 cells): < 10 nM

CCn1c(=O)c(-c2cc(NC(=O)Nc3cc(F)ccc3F)c(F)cc2C)cc2cnc(NC)cc21 [Example 61, 1-(2,5-difluorophenyl)-3-(5-(1-ethyl-7-(methylamino)-2-oxo-1,2-dihydro-1,6-naphthyridin-3-yl)-2-fluoro-4-methylphenyl)urea]
IC50 (Phospho-KIT (Tyr719) [1]): 10 to 100 nM | IC50 (GIST T1 cells): < 10 nM

— EP3722296B1, “DIHYDRONAPHTHYRIDINES AND RELATED COMPOUNDS USEFUL AS KINASE INHIBITORS FOR THE TREATMENT OF PROLIFERATIVE DISEASES” (Deciphera Pharmaceuticals, LLC, priority 2012, dated 2013)
